Measurements published in US20230382925A1, “MODULATORS OF CYSTIC FIBROSIS TRANSMEMBRANE CONDUCTANCE REGULATOR” (VERTEX PHARMACEUTICALS INCORPORATED, priority 2020, published 2023).
Where two headings read alike, the source gives them in different places.

Key:
CFTR [1] = target: T1, CFTR (Homo sapiens, UniProt P13569, DEL508-508); test: HBE2 assay: Ussing chamber assay of CFTR-mediated short-circuit currents (F508del/MF-HBE, with 44 nM potentiator); format: cell-based; details: F508del/MF-HBE cells; single fixed concentration 3 μM with 44 nM (6R,12R)-17-amino-12-methyl-6,15-bis(trifluoromethyl)-...-pentaen-6-ol, 18-24 hours, 20% human serum
T1 construct: human bronchial epithelial (HBE) cells derived from CF subjects heterozygous for F508del; endogenous in cells; host or cells: primary human bronchial epithelial cells from CF subjects (F508del/MF-HBE)
Description: 1. Ussing Chamber Assay of CFTR-mediated Short-circuit Currents
Ussing chamber experiments were performed using human bronchial epithelial (HBE) cells derived from CF subjects heterozygous for F508del and a minimal function CFTR mutation (F508del/MF-HBE) and cultured as previously described (Neuberger T, Burton B, Clark H, Van Goor F Methods Mol Biol 2011:741:39-54). After four days the apical media was removed, and the cells were grown at an air liquid interface for >14 days prior to use.
To isolate the CFTR-mediated short-circuit (ISC) current, F508del/MF-HBE grown on Costar® Snapwell™ cell culture inserts were mounted in an Ussing chamber and the transepithelial ISC was measured under voltage-clamp recording conditions (Vhold=0 mV) at 37° C. The basolateral solution contained (in mM) 145 NaCl, 0.83 K2HPO4, 3.3 KH2PO4, 1.2l MgCl2, 1.2 CaCl2), 10 Glucose, 10 HEPES (pH adjusted to 7.4 with NaOH) and the apical solution contained (in mM) 145 NaGluconate, 1.2 MgCl2, 1.2 CaCl2), 10 glucose, 10 HEPES (pH adjusted to 7.4 with NaOH) and 30 μM amiloride to block the epithelial sodium channel. […] The CFTR-mediated ISC (μA/cm^2) for each condition was determined from the peak forskolin response to the steady-state current following inhibition. […]
The activity of the CFTR corrector compounds on the CFTR-mediated ISC was determined in Ussing chamber studies as described above. […]

CFTR [2] = target: T2, CFTR (Homo sapiens, UniProt P13569); test: Membrane Potential Dye, Enteroid Assay A; format: cell-based; details: for EC50: read-out: Ent. A EC50
In short: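 Primary human intestinal enteroid cells exposed to compound for 18–24 hours at 37 °C, then loaded 25 min with methyl oxonol membrane potential dye plus CaCC inhibitors. Chloride transport triggered in chloride-free buffer with 10 μM forskolin, 100 μM IBMX and 300 nM Compound III, fluorescence read 15 min; % Activity relative to a triple-combination corrector/potentiator control.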
Target sequence in this assay (P13569 with tags, fused parts or gaps DEL508-508): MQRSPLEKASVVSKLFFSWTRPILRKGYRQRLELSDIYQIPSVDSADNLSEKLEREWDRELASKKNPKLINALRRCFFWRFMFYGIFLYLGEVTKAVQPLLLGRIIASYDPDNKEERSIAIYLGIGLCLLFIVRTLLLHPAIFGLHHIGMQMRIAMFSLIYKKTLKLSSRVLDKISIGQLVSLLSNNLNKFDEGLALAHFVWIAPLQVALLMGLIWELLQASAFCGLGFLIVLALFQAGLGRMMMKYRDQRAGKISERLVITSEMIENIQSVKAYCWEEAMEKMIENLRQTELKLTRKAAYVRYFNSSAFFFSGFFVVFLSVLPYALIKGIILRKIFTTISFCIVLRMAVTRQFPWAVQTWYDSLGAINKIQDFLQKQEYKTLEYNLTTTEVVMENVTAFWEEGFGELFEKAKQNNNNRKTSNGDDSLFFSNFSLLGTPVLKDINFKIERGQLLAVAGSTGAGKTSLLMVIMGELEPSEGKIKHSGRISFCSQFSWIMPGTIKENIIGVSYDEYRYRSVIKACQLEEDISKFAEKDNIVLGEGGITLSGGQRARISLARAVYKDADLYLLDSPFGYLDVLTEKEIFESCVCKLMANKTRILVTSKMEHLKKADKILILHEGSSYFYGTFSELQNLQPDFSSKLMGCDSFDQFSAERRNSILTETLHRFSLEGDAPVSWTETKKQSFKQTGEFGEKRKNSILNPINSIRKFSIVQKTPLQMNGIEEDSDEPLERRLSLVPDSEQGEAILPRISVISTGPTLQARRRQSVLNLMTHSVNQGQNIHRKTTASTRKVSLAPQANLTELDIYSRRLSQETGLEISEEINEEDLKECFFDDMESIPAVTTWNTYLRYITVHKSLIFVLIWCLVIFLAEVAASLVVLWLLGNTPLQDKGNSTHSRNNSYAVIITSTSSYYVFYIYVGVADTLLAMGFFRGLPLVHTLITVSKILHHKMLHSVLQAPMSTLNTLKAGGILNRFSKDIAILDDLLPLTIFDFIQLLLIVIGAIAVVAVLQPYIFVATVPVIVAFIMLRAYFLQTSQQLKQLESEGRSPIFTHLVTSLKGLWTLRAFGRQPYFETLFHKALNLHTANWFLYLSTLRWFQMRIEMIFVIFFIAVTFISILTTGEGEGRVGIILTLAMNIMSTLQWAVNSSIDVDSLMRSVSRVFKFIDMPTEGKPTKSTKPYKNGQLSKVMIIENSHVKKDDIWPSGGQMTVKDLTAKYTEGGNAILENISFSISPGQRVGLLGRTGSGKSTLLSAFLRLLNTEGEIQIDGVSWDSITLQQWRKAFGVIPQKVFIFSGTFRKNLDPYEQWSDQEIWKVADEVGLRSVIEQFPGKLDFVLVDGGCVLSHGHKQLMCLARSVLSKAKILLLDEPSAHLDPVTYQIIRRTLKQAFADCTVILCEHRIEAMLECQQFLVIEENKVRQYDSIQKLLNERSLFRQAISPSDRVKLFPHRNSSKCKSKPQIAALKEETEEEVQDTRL

CFTR [3] = target: T2, CFTR; test: Membrane Potential Dye, Enteroid Assay B; format: cell-based; details: for EC50: read-out: Ent. B EC50
In short: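 Activity given as % of a triple-combination reference (1 μM and 3 μM correctors, 300 nM acute potentiator). Enteroids were preincubated 18-24 h with compound; chloride efflux then measured 15 min by methyl oxonol fluorescence after forskolin/IBMX/Compound III stimulation in chloride-free buffer containing CaCCinh-A01 and Chicago Sky Blue.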
Target sequence in this assay (P13569 with tags, fused parts or gaps DEL508-508): as above

[4] = amide bond, 13-membered ring, HATU/DIEA
CFTR [5] = target: T2, CFTR; test: standard Ussing Chamber Assay for CFTR potentiator activity; format: cell-based
Description: tert-Butyl N-[(6R,12R)-6-benzyloxy-12-methyl-6,15-bis(trifluoromethyl)-13,19-dioxa-3,4,18-triazatricyclo[12.3.1.12,5]nonadeca-1(18),2,4,14,16-pentaen-17-yl]-N-tert-butoxycarbonyl-carbamate (8.6 g, 11.77 mmol) was dissolved in ethanol (172 mL) then the flask was cycled 3 times between vacuum/nitrogen. Treated the mixture with 10% Pd/C (50% water wet, 1.8 g of 5% w/w, 0.8457 mmol) then cycled 3 times between vacuum/nitrogen and 3 times between vacuum/hydrogen and then stirred vigorously under hydrogen (balloon) at room temperature for 18 h. The mixture was cycled 3 times between vacuum/nitrogen, filtered over Celite washing with ethanol and then the filtrate was evaporated to give 7.3 g of tert-butyl N-tert-butoxycarbonyl-N-[(6R,12R)-6-hydroxy-12-methyl-6,15-bis(trifluoromethyl)-13,19-dioxa-3,4,18-triazatricyclo[12.3.1.12,5]nonadeca-1(18),2,4,14,16-pentaen-17-yl]carbamate an off-white solid. 1H NMR and MS confirmed the expected product. CFTR modulatory activity was confirmed using a standard Ussing Chamber Assay for CFTR potentiator activity.
Target sequence in this assay (P13569 whole entry, species assumed): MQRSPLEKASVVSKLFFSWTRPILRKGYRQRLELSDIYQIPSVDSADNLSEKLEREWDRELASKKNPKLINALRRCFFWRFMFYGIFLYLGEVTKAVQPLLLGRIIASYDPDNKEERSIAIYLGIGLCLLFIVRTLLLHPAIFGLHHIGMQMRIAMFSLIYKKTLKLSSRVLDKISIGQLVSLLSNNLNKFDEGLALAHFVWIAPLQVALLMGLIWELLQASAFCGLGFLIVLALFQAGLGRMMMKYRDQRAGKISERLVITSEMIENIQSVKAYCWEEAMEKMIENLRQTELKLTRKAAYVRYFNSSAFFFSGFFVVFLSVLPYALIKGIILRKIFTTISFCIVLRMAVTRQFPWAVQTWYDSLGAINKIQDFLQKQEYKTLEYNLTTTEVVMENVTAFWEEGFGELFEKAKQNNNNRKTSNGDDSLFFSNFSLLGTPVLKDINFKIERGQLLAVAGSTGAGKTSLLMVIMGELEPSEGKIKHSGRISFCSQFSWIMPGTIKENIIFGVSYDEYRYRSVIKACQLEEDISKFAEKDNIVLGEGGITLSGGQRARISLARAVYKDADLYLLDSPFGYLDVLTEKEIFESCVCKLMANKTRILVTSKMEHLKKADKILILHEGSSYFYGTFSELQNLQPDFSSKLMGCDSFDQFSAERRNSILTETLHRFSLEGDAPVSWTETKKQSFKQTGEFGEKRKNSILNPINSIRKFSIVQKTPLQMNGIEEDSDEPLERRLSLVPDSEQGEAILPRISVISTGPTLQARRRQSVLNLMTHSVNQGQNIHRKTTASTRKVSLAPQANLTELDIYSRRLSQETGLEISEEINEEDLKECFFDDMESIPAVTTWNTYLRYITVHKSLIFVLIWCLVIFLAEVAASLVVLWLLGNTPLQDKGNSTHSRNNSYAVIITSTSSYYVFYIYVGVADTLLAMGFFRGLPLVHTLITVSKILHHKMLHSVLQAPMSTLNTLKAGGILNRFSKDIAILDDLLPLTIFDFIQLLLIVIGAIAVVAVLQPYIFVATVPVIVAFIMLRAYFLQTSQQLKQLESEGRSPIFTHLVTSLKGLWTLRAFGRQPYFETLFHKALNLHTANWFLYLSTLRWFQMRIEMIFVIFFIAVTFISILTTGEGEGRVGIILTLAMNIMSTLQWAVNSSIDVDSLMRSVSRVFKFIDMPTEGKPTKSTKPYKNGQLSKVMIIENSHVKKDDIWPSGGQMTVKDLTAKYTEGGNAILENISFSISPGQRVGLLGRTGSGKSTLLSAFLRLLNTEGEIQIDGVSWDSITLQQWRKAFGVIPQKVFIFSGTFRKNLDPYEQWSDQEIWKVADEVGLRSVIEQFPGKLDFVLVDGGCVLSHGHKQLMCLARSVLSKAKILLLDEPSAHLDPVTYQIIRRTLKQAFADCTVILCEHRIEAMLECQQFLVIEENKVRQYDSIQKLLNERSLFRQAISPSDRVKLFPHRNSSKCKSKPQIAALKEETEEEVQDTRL

T1 sequence (P13569 with tags, fused parts or gaps DEL508-508): as the sequence (P13569 with tags, fused parts or gaps DEL508-508) above

Cc1cccc(C)c1-c1cc2nc(n1)NS(=O)(=O)c1cccc(c1)C(=O)N(C1CCN(C)C1=O)[C@H](CC(C)(C)C)CO2 (stereo partly drawn) [Compound 508, (11R)-6-(2,6-Dimethylphenyl)-11-(2,2-dimethylpropyl)-12-(1-methyl-2-oxo-pyrrolidin-3-yl)-2,2-dioxo-9-oxa-2λ^6-thia-3,5,12,19-tetrazatricyclo[12.3.1.14,8]nonadeca-1(18),4(19),5,7,14,16-hexaen-13-one]
HBE2 Activity at 3 μM (CFTR [1]): +++ (+++ is >60%)

Cc1cccc(C)c1-c1cc2nc(n1)NS(=O)(=O)c1cccc(c1)C(=O)N(C1CC3(CCN(C(=O)OC(C)(C)C)CC3)C1)[C@H](CC(C)C)CO2 [Compound 13, tert-Butyl 2-[(11R)-6-(2,6-dimethylphenyl)-11-isobutyl-2,2,13-trioxo-9-oxa-2λ^6-thia-3,5,12,19-tetrazatricyclo[12.3.1.14,8]nonadeca-1(18),4(19),5,7,14,16-hexaen-12-yl]-7-azaspiro[3.5]nonane-7-carboxylate]
Ent. A Max Activity (%) (CFTR [2]): +++ (+++ is >60%)
EC50 (CFTR [2]): < 1000 nM
Ent. B Max Activity (%) (CFTR [3]): +++ (+++ is >60%)
EC50 (CFTR [3]): < 1000 nM
ring closure, isolated yield ([4]; from Cc1cccc(C)c1-c1cc(OC[C@@H](CC(C)C)NC2CC3(CCN(C(=O)OC(C)(C)C)CC3)C2)nc(NS(=O)(=O)c2cccc(C(=O)O)c2)n1, DMF, 68.6 mM, 25.0 °C, 13.0 h): 78%

Cc1cccc(C)c1-c1cc2nc(n1)NS(=O)(=O)c1cccc(n1)C(=O)N(C1CC3(CC3)C1)[C@H](CC1(C(F)(F)F)CC1)CO2 [Compound 163, (11R)-6-(2,6-Dimethylphenyl)-2,2-dioxo-12-spiro[2.3]hexan-5-yl-11-[[1-(trifluoromethyl)cyclopropyl]methyl]-9-oxa-2λ^6-thia-3,5,12,18,19-pentazatricyclo[12.3.1.14,8]nonadeca-1(18),4(19),5,7,14,16-hexaen-13-one]
Ent. A Max Activity (%) (CFTR [2]): +++ (+++ is >60%)
EC50 (CFTR [2]): < 1000 nM
ring closure, isolated yield ([4]; from Cc1cccc(C)c1-c1cc(OC[C@@H](CC2(C(F)(F)F)CC2)NC2CC3(CC3)C2)nc(NS(=O)(=O)c2cccc(C(=O)O)n2)n1, NMP, 99.8 mM, 25.0 °C, 16.0 h): 58%

Cc1cccc(C)c1-c1cc2nc(n1)NS(=O)(=O)c1cccc(c1)C(=O)N(C1CCCN(C)C1=O)[C@H](CC(C)(C)C)CO2 (stereo partly drawn) [Compound 507, (11R)-6-(2,6-Dimethylphenyl)-11-(2,2-dimethylpropyl)-12-(1-methyl-2-oxo-3-piperidyl)-2,2-dioxo-9-oxa-2λ^6-thia-3,5,12,19-tetrazatricyclo[12.3.1.14,8]nonadeca-1(18),4(19),5,7,14,16-hexaen-13-one]
HBE2 Activity at 3 μM (CFTR [1]): +++ (+++ is >60%)

Cc1cccc(C)c1-c1cc2nc(n1)NS(=O)(=O)c1cccc(c1)C(=O)N(C1CC3(CC3)C1)[C@H](CC1(C(F)(F)F)CC1)CO2 [Compound 198, (11R)-6-(2,6-Dimethylphenyl)-2,2-dioxo-12-spiro[2.3]hexan-5-yl-11-[[1-(trifluoromethyl)cyclopropyl]methyl]-9-oxa-2λ^6-thia-3,5,12,19-tetrazatricyclo[12.3.1.14,8]nonadeca-1(18),4(19),5,7,14,16-hexaen-13-one]
Ent. A Max Activity (%) (CFTR [2]): +++ (+++ is >60%)
EC50 (CFTR [2]): < 1000 nM
Ent. B Max Activity (%) (CFTR [3]): +++ (+++ is >60%)
EC50 (CFTR [3]): < 1000 nM
ring closure, isolated yield ([4]; from Cc1cccc(C)c1-c1cc(OC[C@@H](CC2(C(F)(F)F)CC2)NC2CC3(CC3)C2)nc(NS(=O)(=O)c2cccc(C(=O)O)c2)n1, DMF, 49.1 mM, 21.0 h): 60%

C[C@@H]1CCCCC[C@](O)(C(F)(F)F)C2=NN=C(O2)c2nc(c(C(F)(F)F)cc2N)O1 [(6R,12R)-17-amino-12-methyl-6,15-bis(trifluoromethyl)-13,19-dioxa-3,4,18-triazatricyclo[12.3.1.12,5] nonadeca-1(18),2,4,14,16-pentaen-6-ol]
CFTR modulatory activity (potentiator activity) (CFTR [5]): confirmed
